“Also recorded” adds a separate entry of the source. Where two headings read alike, the source gives them in different places.
Tests used:
[1] = tested on: T6PNE cells; test: fat clearance assay in palmitate-treated T6PNE cells (Oil Red O, Nile Red, triglyceride); type: cell-based, human; details: 0.25 mM palmitate for 2 days; for cellular triglyceride (TG) level: 10 μM
Description: Oil red O and Nile Red staining were used to measure lipid accumulation. Oil Red O staining was done as known in the art. Briefly, fixed cells were incubated with Oil Red O solution (Poly Scientific) for 3 h, followed by photomicrography (Olympus, IX71). For Nile Red staining, dye (1: 500 in PBS from 1 mg/ml in ethanol stock, Sigma) was added for 30 mins and DAPI added for 10 mins at room temperature. Quantification of Nile Red staining was done with a Celigo imaging cytometer (Nexcelom Bioscience). More than 4000 cells were analyzed for each quantification. The number of Nile Redpositive cells was normalized to the DAPI-positive cell number for each well and fold change was calculated relative to a DMSO control well.
Palmitate (150 mM) (Sigma-Aldrich) was prepared in 50% ethanol and precomplexed with 15% fatty acid-free BSA (Research Organics, Cleveland, Ohio, USA) in a 37 C water shaker. BSA-precomplexed palmitate was used as a 12 mM stock solution for all assays with a final concentration of 0.25 mM palmitate in cell culture medium.
siRNAs were purchased from Ambion. For transfections, 24 μL of each siRNA (1 μM stock) was mixed with 90 μL of a 1:100 dilution of Lipofectamine RNAi MAX (Invitrogen, Waltham, Mass., USA) in Opti-MEM. Transfection was done in 24 well plates (Thermo Fisher Scientific, Waltham, Mass., USA), by incubation with cells for 30 min. at room temperature. One day after transfection, cells were transferred to 96 well plates (2000 cells per well) and incubated at 37° C. for an additional day. Forty-eight hours after transfection, either palmitate-BSA complex or BSA control plus or minus compounds was added for 2 days. For validation of siRNAs, transfected cells were harvested for RNA purification and QPCR for each gene 2 days after transfection.
The bicinchoninic acid (BCA) protein assay kit assay (Thermo scientific) was used to measure protein amount for DART, Western blotting and TG assays. Absorbance at 550 nm was determined using a plate reader.

[2] = biological target: T1, HNF4α (Homo sapiens, UniProt P41235); test: DARTS assay (HNF4α protease sensitivity) in HepG2 cells; type: binding; parameters: Total cell protein was extracted; endogenous in cells; host or cells: HepG2 cells; details: 40 or 80 μM for 16 h, subtilisin
T1 sequence (P41235 1-474): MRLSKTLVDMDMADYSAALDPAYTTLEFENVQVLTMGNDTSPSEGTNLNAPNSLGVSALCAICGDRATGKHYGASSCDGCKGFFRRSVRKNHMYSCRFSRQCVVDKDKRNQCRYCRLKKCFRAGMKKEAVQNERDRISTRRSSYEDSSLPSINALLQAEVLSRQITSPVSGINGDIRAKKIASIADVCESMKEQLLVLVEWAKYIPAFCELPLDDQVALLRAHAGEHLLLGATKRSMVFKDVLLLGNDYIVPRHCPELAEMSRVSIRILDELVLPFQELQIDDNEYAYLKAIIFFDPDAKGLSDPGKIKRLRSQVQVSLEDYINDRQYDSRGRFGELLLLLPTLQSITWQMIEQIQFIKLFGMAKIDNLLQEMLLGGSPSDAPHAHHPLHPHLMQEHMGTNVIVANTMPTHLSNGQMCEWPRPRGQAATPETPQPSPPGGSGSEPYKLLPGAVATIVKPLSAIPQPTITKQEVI
Description: DARTS assays were conducted as described in the art. HepG2 cells were treated with DMSO, BI6015, NCT, NFT at a concentration of 40 or 80 μM for 16 hr. Total cell protein was extracted and measured by BCA protein assay (Thermo Scientific). Each sample was split into two aliquots for proteolysis without (−) or with (+) Subtilisin (Sigma-Aldrich). Forty […] of cell lysate was incubated with or without protease (40 ng/ml subtilisin) for 35 min at room temperature.
(§1) Whole-cell extracts were prepared by incubation in RIPA buffer (Invitrogen) containing protease inhibitors (Calbiochem, San Diego, Calif.). Protein ([…]) was separated on 12% or 16% Tri-Glycine gels (Invitrogen) and transferred to Immobilon P membrane (0.2 μm pore, Millipore). After 1 h in phosphate-buffered saline-Tween (PBST) with 3% milk, membrane was incubated with antibodies to HNF4α (mouse, Novus, 1:1000), LC3B (rabbit, Novus, 1:500), p62 (SQSTM1, mouse, Santa Cruz, 1:1000) or β-actin (mouse, Santa Cruz, 1:2000), followed by secondary antibody conjugated to horseradish peroxidase (1:5000, Jackson Immune).

[3] = animal cells and mice; cited from earlier work
[4] = tested on: HNF4α mRNA; test: HNF4α mRNA qPCR in T6PNE cells; type: cell-based, human
Description: (§2) Quantitative PCR (Q-PCR) from in vitro cell culture experiments used total RNA purified using RNeasy Kits (Qiagen). For liver tissue samples, total RNA was isolated using Trizol (Invitrogen) and prepared for RNAseq (mouse liver DMSO and NCT, N=3). cDNA was amplified using 3 μg of total RNA using qScript cDNA SuperMix (Quanta BioSciences, Beverly, Mass., USA). QPCR analysis was performed using SYBR® Select Master Mix (Applied Biosystems) and ABI 7900HT (Applied Biosystems, Thermo Fisher Scientific). The Ct values of mRNA expression were then normalized to the 18 s rRNA values and are expressed as fold change over samples from mice fed normal chow for in vivo experiments or DMSO controls for cell culture experiments.

[5] = tested on: hepatic steatosis; test: oral administration in mice (hepatic steatosis); type: in vivo, mouse; details: subsequent studies
[6] = tested on: SPNS2 mRNA; test: SPNS2 mRNA in primary human hepatocytes; type: cell-based; details: high fat media, 5, 15, 40 µM, Day 4 to Day 10
Description: Experiments with primary human hepatocytes were performed by CN-Bio (Cambridge, UK). Primary human hepatocytes (PHHs), human Kupffer cells (HKs) and human stellate cells (HSCs) were seeded onto CN-Bio's PhysioMimix LC12 MPS culture plates at 6×10^5 cells for PHHs and 6×10^4 cells for HKs and HSCs in 1.6 ml of CN-Bio's HEP-lean media with 5% FCS. Throughout the experiment the cells were maintained at a flow rate of 1 μl/s. After 24 h (Day 1) of seeding, the media was changed to HEP-lean media and the cells were incubated until day 4 to allow the cells to form microtissues. At day 4 post seeding, media was changed to HEP-fat media and treated with DMSO or NCT (5, 15, 40 μM). Media was replaced on days 6 and 8. Cells were harvested on day 10 for RNA extraction. Data are presented as mean ±SEM of three or more samples as indicated. Statistical significance was assessed using Student's t-test, ANOVA or R^2 coefficient of correlation.

[7] = tested on: SPNS2 mRNA; test: SPNS2 qPCR in mouse pancreas; type: in vivo
Description: as §2

[8] = tested on: LC3B; test: anti-LC3B Western blot in T6PNE cells; type: cell-based, human; details: 10 μM
Description: as §1

SMILES	fat clearance (stored fat by Oil Red O and Nile Red staining) [1]	cellular triglyceride (TG) level [1]	HNF4α proteolytic sensitivity / conformational change [2]	anti-inflammatory properties [3]	HNF4α mRNA [4]	hepatic steatosis after oral administration [5]	SPNS2 mRNA [6]	SPNS2 expression in mouse pancreas [7]	LC3B-II to LC3B-I ratio [8]	HNF4α mRNA ([4]; listed as N-trans-caffeoyltyramine)
COc1cc(/C=C/C(=O)NCCc2ccc(O)cc2)ccc1O [NFT, N-trans feruloyltyramine]	less stored fat than control cells; also recorded: induced fat clearance from palmitate-loaded cells	produced the same result as the Nile Red staining	induced a change in HNF4α proteolytic sensitivity	anti-inflammatory properties	increased; also recorded: induced HNF4α expression	–	–	–	–	–
O=C(/C=C/c1ccc(O)c(O)c1)NCCc1ccc(O)cc1 [NCT, N-trans-caffeoyltyramine]	less stored fat than control cells; also recorded: induced fat clearance from palmitate-loaded cells	produced the same result as the Nile Red staining	induced a change in HNF4α proteolytic sensitivity	anti-inflammatory properties	increased; also recorded: induced HNF4α expression	effective in reducing hepatic steatosis in mice	did not induce a change in SPNS2 expression	induced SPNS2 expression	induced increases	induces the expression of HNF4a mRNA

Reference: patent publication US20220362182A1, “METHODS FOR REVERSING HEPATIC STEATOSIS” (BRIGHTSEED, INC., priority 2020, published 2022)
